Data: the supplement of paper PMC4862054

Key:
Assay in all cases: normalised response (% of control), CellTiter-Glo; higher = more viable cells (100 = DMSO, 0 = benzethonium chloride kill control)
Details in all cases: incubation time: 72 h
[1] = test system: HDQ-P1
How it was run: (§1)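 In 384-well plates holding compound at 5 concentrations in 10-fold steps over a 10,000-fold range specific to each compound, breast cancer cell lines were seeded as 20 µl suspension and incubated 72 h. CellTox Green fluorescence was measured at 485/520 nm, after which CellTiter-Glo luminescence was measured following 10 min at room temperature. Plate signals were normalised to 0.1 % DMSO (100) and a positive kill control (0), and each value is the normalised signal at a single concentration.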

[2] = test system: MDA-MB-231
How it was run: as §1

[3] = test system: BT-474
How it was run: as §1

[4] = test system: HCC1599
How it was run: as §1

[5] = test system: MCF-10A
How it was run: as §1

[6] = test system: MDA-MB-453
How it was run: as §1

[7] = test system: MDA-MB-436
How it was run: as §1

[8] = test system: CAL-120
How it was run: as §1

[9] = test system: CAL-85-1
How it was run: as §1

[10] = test system: CAL-148
How it was run: as §1

[11] = test system: MFM-223
How it was run: as §1

[12] = test system: MDA-MB-468
How it was run: as §1

[13] = test system: BT-549
How it was run: as §1

[14] = test system: Hs578T
How it was run: as §1

[15] = test system: CAL-51
How it was run: as §1

[16] = test system: SK-BR-3
How it was run: as §1

[17] = test system: HCC1937
How it was run: as §1

[18] = test system: DU-4475
How it was run: as §1

[19] = test system: HCC1143
How it was run: as §1

SMILES | normalised response [1] | normalised response [2] | normalised response [3] | normalised response [4] | normalised response [5] | normalised response [6] | normalised response [7] | normalised response [8] | normalised response [9] | normalised response [10] | normalised response [11] | normalised response [12] | normalised response [13] | normalised response [14] | normalised response [15] | normalised response [16] | normalised response [17] | normalised response [18] | normalised response [19]
CCOC(=O)CCNc1cc(N2CCc3ccccc3CC2)nc(-c2ccccn2)n1 [GSK-J4] (10 nM) | 97.4% | 95.1% | 97.3% | 104% | 102% | 91.9% | 95.8% | 102% | 93.1% | 92.8% | 99.4% | 97.8% | 101% | 97% | 102% | 97.9% | 93.1% | 99% | 92.6%
CCOC(=O)CCNc1cc(N2CCc3ccccc3CC2)nc(-c2ccccn2)n1 [GSK-J4] (100 nM) | 93.1% | 92.8% | 95.7% | 95.5% | 97.3% | 84.8% | 92.6% | 110% | 100% | 101% | 103% | 95.5% | 93.8% | 105% | 97.8% | 68.8% | 95.2% | 95.3% | 97.6%
Cc1cc(Nc2cc(CN3CCOCC3)c3nc(C)c(Cc4ccc(Cl)cc4F)n3n2)n[nH]1 [Gandotinib] (1 nM) | 97.3% | 98.1% | 108% | 109% | 107% | 103% | 97.4% | 94.4% | 104% | 111% | 99.7% | 112% | 105% | 100% | 93.5% | 110% | 100% | 106% | 97.8%
COc1cc2ncnc(Nc3ccc(F)c(Cl)c3)c2cc1OCCCN1CCOCC1 [Gefitinib] (10 nM) | 97% | 98% | 100% | 89.5% | 95.6% | 108% | 103% | 96.2% | 96.6% | 105% | 108% | 95.9% | 98.6% | 103% | 103% | 107% | 98.3% | 100% | 98.1%
NC(=O)c1ccc(I)c([N+](=O)[O-])c1 [Iniparib] (10 nM) | 89.2% | 92.6% | 91.2% | 94.2% | 81.3% | 77.9% | 87.2% | 91.9% | 90.6% | 83.2% | 84.2% | 90.7% | 94.2% | 92.8% | 85.4% | 74.1% | 95.4% | 93.5% | 90%
CCc1c2c(nc3ccc(OC(=O)N4CCC(N5CCCCC5)CC4)cc13)-c1cc3c(c(=O)n1C2)COC(=O)[C@]3(O)CC [Irinotecan] (10 nM) | 98.4% | 97.7% | 100% | 97.5% | 105% | 107% | 92.7% | 94.2% | 100% | 93.7% | 98.7% | 105% | 90.8% | 97.7% | 114% | 109% | 94.8% | 106% | 99.7%
Oc1ccc2c(c1)CC[C@H](c1ccccc1)[C@@H]2c1ccc(OCCN2CCCC2)cc1 [Lasofoxifene] (1 nM) | 96.3% | 104% | 102% | 97.3% | 104% | 112% | 101% | 95.1% | 96.6% | 112% | 107% | 105% | 93.2% | 103% | 106% | 110% | 101% | 105% | 100%
COC(=O)c1ccc2c(c1)NC(=O)/C2=C(\Nc1ccc(N(C)C(=O)CN2CCN(C)CC2)cc1)c1ccccc1 [Nintedanib] (1 nM) | 102% | 98.7% | 98% | 103% | 103% | 120% | 101% | 104% | 99.1% | 110% | 99.1% | 110% | 97.6% | 95.9% | 121% | 101% | 97.7% | 101% | 97.1%
COC(=O)c1ccc2c(c1)NC(=O)/C2=C(\Nc1ccc(N(C)C(=O)CN2CCN(C)CC2)cc1)c1ccccc1 [Nintedanib] (10 nM) | 104% | 91.2% | 96.9% | 133% | 107% | 115% | 104% | 100% | 95% | 105% | 103% | 102% | 100% | 104% | 125% | 115% | 97.3% | 103% | 97%
O=C(Nc1cccnc1)N1CCC(Cc2cccc(Oc3ccc(C(F)(F)F)cn3)c2)CC1 [PF-3845] (10 nM) | 97.3% | 109% | 110% | 96.9% | 115% | 106% | 100% | 105% | 103% | 112% | 119% | 101% | 96.7% | 108% | 88.9% | 96.7% | 103% | 105% | 106%
CNC(=O)c1ccc(N2C(=S)N(c3ccc(C#N)c(C(F)(F)F)c3)C(=O)C23CCC3)cc1F [RD162] (1 nM) | 95.9% | 106% | 97% | 107% | 102% | 104% | 101% | 98% | 96.2% | 104% | 99.9% | 106% | 93.8% | 102% | 108% | 107% | 93.8% | 102% | 93.7%
CNC(=O)c1ccc(N2C(=S)N(c3ccc(C#N)c(C(F)(F)F)c3)C(=O)C23CCC3)cc1F [RD162] (10 nM) | 96.3% | 98.2% | 103% | 99.3% | 105% | 104% | 93.7% | 95.5% | 101% | 107% | 102% | 105% | 93.8% | 95.3% | 102% | 94.4% | 97% | 102% | 105%
CNC(=O)c1cc(Oc2ccc(NC(=O)Nc3ccc(Cl)c(C(F)(F)F)c3)c(F)c2)ccn1 [Regorafenib] (10 nM) | 102% | 95.2% | 111% | 108% | 113% | 117% | 104% | 94% | 100% | 109% | 101% | 97.9% | 106% | 101% | 108% | 110% | 96% | 105% | 100%
CO[C@H]1C[C@@H]2CC[C@@H](C)[C@@](O)(O2)C(=O)C(=O)N2CCCC[C@H]2C(=O)O[C@H]([C@H](C)C[C@@H]2CC[C@@H](OP(C)(C)=O)[C@H](OC)C2)CC(=O)[C@H](C)/C=C(\C)[C@@H](O)[C@@H](OC)C(=O)[C@H](C)C[C@H](C)/C=C/C=C/C=C/1C [Ridaforolimus] (0.01 nM) | 109% | 103% | 107% | 113% | 104% | 109% | 103% | 103% | 99.8% | 105% | 105% | 102% | 101% | 96.8% | 109% | 111% | 99.6% | 103% | 102%
c1ccc2c(CCNc3ccc(Nc4ccncc4)cc3)c[nH]c2c1 [Serdemetan] (10 nM) | 98.7% | 97.3% | 87.6% | 115% | 100% | 105% | 97.9% | 91.5% | 106% | 92% | 98.3% | 95.2% | 105% | 96.5% | 105% | 94.3% | 99.4% | 102% | 93.4%
S=P(N1CC1)(N1CC1)N1CC1 [Thio-TEPA] (5 nM) | 93.4% | 102% | 93.2% | 104% | 101% | 108% | 78.2% | 95.4% | 99.2% | 90.4% | 102% | 91.2% | 94.9% | 106% | 64.7% | 105% | 93.8% | 98.6% | 96.2%
S=P(N1CC1)(N1CC1)N1CC1 [Thio-TEPA] (50 nM) | 94.7% | 96.6% | 97% | 101% | 103% | 98% | 98.5% | 93% | 98.7% | 94.2% | 106% | 95.3% | 100% | 99.1% | 71.5% | 91.5% | 101% | 103% | 95.7%
CN(C)CCOc1ccc(/C(=C(/CCCl)c2ccccc2)c2ccccc2)cc1 [Toremifene] (10 nM) | 99.2% | 96.8% | 101% | 91.3% | 105% | 120% | 97.1% | 105% | 95.1% | 109% | 106% | 103% | 99% | 103% | 130% | 117% | 98.6% | 108% | 98.2%
CC(C)C[C@@H](C(=O)N[C@H](C(=O)OC1CCCC1)c1ccccc1)[C@H](O)C(=O)NO [Tosedostat] (10 nM) | 99.8% | 94.4% | 95.3% | 114% | 102% | 93.9% | 96.1% | 92.6% | 92.2% | 111% | 104% | 78.5% | 88.2% | 94.4% | 125% | 113% | 87.9% | 99.5% | 97.2%
COc1cc2c(NC3CCN(C(C)C)CC3)nc(N3CCC(F)(F)CC3)nc2cc1OCCCN1CCCC1 [UNC0642] (1 nM) | 92.7% | 96% | 92.3% | 88.9% | 102% | 105% | 89.2% | 94.2% | 93.2% | 87.2% | 91.2% | 95.9% | 97.9% | 99.3% | 103% | 93.1% | 94.5% | 97.5% | 95%
